Experimental data taken from publication PMC8815882, “Screening the pandemic response box identified benzimidazole carbamates, Olorofim and ravuconazole as promising drug candidates for the treatment of eumycetoma” (PLoS Neglected Tropical Diseases, 2022).
Read-outs that look alike come from different tables or passages of the source.

Tested on: M. mycetomatis genome strain MM55
Assay: CLSI M38-A2 based in vitro susceptibility screening (XTT or resazurin), growth at fixed concentration
Assay type: cell-based, Madurella mycetomatis
Settings: Madurella mycetomatis; for Percent fungal survival at 100 µM: read-out: Percentage survival at 100um, 100 uM A (second replicate column)
[1] = mean of three replicates, read-out: Percentage survival at 25um, 25 uM mean
[2] = replicate A, read-out: Percentage survival at 25um, 25 um A
[3] = replicate B, read-out: Percentage survival at 25um, 25 uM B
[4] = replicate C, read-out: Percentage survival at 25um, 25 uM C
[5] = mean of three replicates, read-out: Percentage survival at 100um, 100 uM mean
[6] = replicate 1, read-out: Percentage survival at 100um, 100 uM A (first replicate column)
[7] = replicate 3, read-out: Percentage survival at 100um, 100 uM A (third replicate column)
[8] = mean of replicates, MM55, read-out: Percentage survival at 25um, 25 uM mean
[9] = replicate A, MM55, read-out: Percentage survival at 25um, 25 um A
[10] = replicate B, MM55, read-out: Percentage survival at 25um, 25 uM B
[11] = replicate C, MM55, read-out: Percentage survival at 25um, 25 uM C
[12] = mean of replicates, MM55, read-out: Percentage survival at 100um, 100 uM mean
[13] = replicate 1, MM55, read-out: Percentage survival at 100um, 100 uM A
[14] = replicate 2, MM55, read-out: Percentage survival at 100um, 100 uM A
[15] = replicate 3, MM55, read-out: Percentage survival at 100um, 100 uM A
[16] = mean of replicates, read-out: Percentage survival at 25um, 25 uM mean
[17] = mean of replicates, read-out: Percentage survival at 100um, 100 uM mean
[18] = replicate 1, read-out: Percentage survival at 100um, 100 uM A
[19] = replicate 2, read-out: Percentage survival at 100um, 100 uM A
[20] = replicate 3, read-out: Percentage survival at 100um, 100 uM A

## CC1=C(/C=C/C(C)=C/C=C/C(C)=C/C(=O)Nc2ccc(O)cc2)C(C)(C)CCC1 [MMV001793]
[1]
  activity at 25 µM: 68.1%
[2]
  activity at 25 µM: 69.1%
[3]
  activity at 25 µM: 68.9%
[4]
  activity at 25 µM: 66.2%
[5]
  activity at 100 µM: 62%
[6]
  activity at 100 µM: 59%
Replicate 2
  Percent fungal survival at 100 µM: 58.3%
[7]
  activity at 100 µM: 68.7%

## CC1(C)Cc2c(C#N)c(SCCc3ccccc3)nc(N3CCOCC3)c2CO1 [MMV1549626]
Mean of three, M. mycetomatis MM55, read-out: Percentage survival at 25um, 25 uM mean
  activity at 25 µM: 62.3%
Replicate A, M. mycetomatis MM55, read-out: Percentage survival at 25um, 25 um A
  activity at 25 µM: 67.7%
Replicate B, M. mycetomatis MM55, read-out: Percentage survival at 25um, 25 uM B
  activity at 25 µM: 59.1%
Replicate C, M. mycetomatis MM55, read-out: Percentage survival at 25um, 25 uM C
  activity at 25 µM: 60.3%
Mean of three, M. mycetomatis MM55, read-out: Percentage survival at 100um, 100 uM mean
  activity at 100 µM: 87.3%
Replicate 1, M. mycetomatis MM55, read-out: Percentage survival at 100um, 100 uM A (first replicate column)
  activity at 100 µM: 92.1%
Replicate 2, M. mycetomatis MM55
  Percent fungal survival at 100 µM: 105%
Replicate 3, M. mycetomatis MM55, read-out: Percentage survival at 100um, 100 uM A (third replicate column)
  activity at 100 µM: 65.1%

## COCCn1cnc2c(=O)[nH]c(Nc3ccccc3)nc21 [MMV1782103]
[8]
  activity at 25 µM: 86.8%
[9]
  activity at 25 µM: 90%
[10]
  activity at 25 µM: 97.7%
[11]
  activity at 25 µM: 72.6%
[12]
  activity at 100 µM: 75.1%
[13]
  activity at 100 µM: 87.4%
[14]
  activity at 100 µM: 60.4%
[15]
  activity at 100 µM: 77.5%

## CCCCN1C[C@H](O)[C@@H](O)[C@H](O)[C@H]1CO [MMV1782098]
[8]
  activity at 25 µM: 95.7%
[9]
  activity at 25 µM: 96.4%
[10]
  activity at 25 µM: 111%
[11]
  activity at 25 µM: 79.8%
[12]
  activity at 100 µM: 68%
[13]
  activity at 100 µM: 94.4%
[14]
  activity at 100 µM: 27.4%
[15]
  activity at 100 µM: 82.2%

## O=S(=O)(NCB(O)O)c1ccc(-c2nnn[nH]2)cc1C(F)(F)F [MMV1782411]
[1]
  activity at 25 µM: 83.9%
[2]
  activity at 25 µM: 61.4%
[3]
  activity at 25 µM: 112%
[4]
  activity at 25 µM: 78.7%
[5]
  activity at 100 µM: 88.5%
[6]
  activity at 100 µM: 91.5%
Replicate 2
  Percent fungal survival at 100 µM: 83.7%
[7]
  activity at 100 µM: 90.2%

## Clc1cccc(-c2nnc(-c3ccccc3)o2)c1 [MMV141011]
[16]
  activity at 25 µM: 67.1%
[2]
  activity at 25 µM: 78.3%
[3]
  activity at 25 µM: 72.5%
[4]
  activity at 25 µM: 50.5%
[17]
  activity at 100 µM: 67.1%
[18]
  activity at 100 µM: 58.8%
[19]
  activity at 100 µM: 65.1%
[20]
  activity at 100 µM: 77.6%

## CCc1cc(Nc2cc(=O)n(CCN3CCN(C(=O)c4ccccc4)CC3)c(=O)[nH]2)ccc1C [MMV1634383]
[16]
  activity at 25 µM: 84%
[2]
  activity at 25 µM: 86.7%
[3]
  activity at 25 µM: 79.7%
[4]
  activity at 25 µM: 85.7%
[17]
  activity at 100 µM: 88.4%
[18]
  activity at 100 µM: 93%
[19]
  activity at 100 µM: 83.3%
[20]
  activity at 100 µM: 89%

## CN(C(=O)C1(c2ccc(Cl)cc2)CCC1)c1ccccc1 [MMV1581030]
[8]
  activity at 25 µM: 63.9%
[9]
  activity at 25 µM: 61.1%
[10]
  activity at 25 µM: 107%
[11]
  activity at 25 µM: 23.2%
[12]
  activity at 100 µM: 9.02%
[13]
  activity at 100 µM: 16%
[14]
  activity at 100 µM: 1.46%
[15]
  activity at 100 µM: 9.58%

## C[N+]1(C)CCCC(OC(=O)C(O)(c2ccccc2)c2ccccc2)C1 (stereo not shown) [MMV002676]
[16]
  activity at 25 µM: 79.3%
[2]
  activity at 25 µM: 73.4%
[3]
  activity at 25 µM: 85.9%
[4]
  activity at 25 µM: 78.5%
[17]
  activity at 100 µM: 79.9%
[18]
  activity at 100 µM: 85.5%
[19]
  activity at 100 µM: 72.6%
[20]
  activity at 100 µM: 81.5%

## Cc1ncc([N+](=O)[O-])n1CC(C)O (stereo not shown) [MMV002287]
[1]
  activity at 25 µM: 111%
[2]
  activity at 25 µM: 140%
[3]
  activity at 25 µM: 90.9%
[4]
  activity at 25 µM: 103%
[5]
  activity at 100 µM: 100%
[6]
  activity at 100 µM: 89.4%
Replicate 2
  Percent fungal survival at 100 µM: 122%
[7]
  activity at 100 µM: 90.2%

## CCOC(=O)N[C@@H]1CC[C@@H]2[C@@H](C1)C[C@H]1C(=O)O[C@H](C)[C@H]1[C@H]2/C=C/c1ccc(-c2cccc(F)c2)cn1 [MMV1593515]
[1]
  activity at 25 µM: 69.2%
[2]
  activity at 25 µM: 68.2%
[3]
  activity at 25 µM: 80.3%
[4]
  activity at 25 µM: 59.1%
[5]
  activity at 100 µM: 72.9%
[6]
  activity at 100 µM: 71.5%
Replicate 2
  Percent fungal survival at 100 µM: 65.2%
[7]
  activity at 100 µM: 82%
